From US6541463B1, “Inhibitors of type 5 and type 3 17β-hydroxysteroid dehydrogenase and methods for their use” (Endorecherche, Inc., priority 1998, dated 2003)

Biological target: T1, androgen receptor (Rattus norvegicus, UniProt P15207)
T1 construct: from tissue; host or cells: ventral prostate cytosol of gonadectomized male Sprague-Dawley rats
T1 sequence (P15207 1-902): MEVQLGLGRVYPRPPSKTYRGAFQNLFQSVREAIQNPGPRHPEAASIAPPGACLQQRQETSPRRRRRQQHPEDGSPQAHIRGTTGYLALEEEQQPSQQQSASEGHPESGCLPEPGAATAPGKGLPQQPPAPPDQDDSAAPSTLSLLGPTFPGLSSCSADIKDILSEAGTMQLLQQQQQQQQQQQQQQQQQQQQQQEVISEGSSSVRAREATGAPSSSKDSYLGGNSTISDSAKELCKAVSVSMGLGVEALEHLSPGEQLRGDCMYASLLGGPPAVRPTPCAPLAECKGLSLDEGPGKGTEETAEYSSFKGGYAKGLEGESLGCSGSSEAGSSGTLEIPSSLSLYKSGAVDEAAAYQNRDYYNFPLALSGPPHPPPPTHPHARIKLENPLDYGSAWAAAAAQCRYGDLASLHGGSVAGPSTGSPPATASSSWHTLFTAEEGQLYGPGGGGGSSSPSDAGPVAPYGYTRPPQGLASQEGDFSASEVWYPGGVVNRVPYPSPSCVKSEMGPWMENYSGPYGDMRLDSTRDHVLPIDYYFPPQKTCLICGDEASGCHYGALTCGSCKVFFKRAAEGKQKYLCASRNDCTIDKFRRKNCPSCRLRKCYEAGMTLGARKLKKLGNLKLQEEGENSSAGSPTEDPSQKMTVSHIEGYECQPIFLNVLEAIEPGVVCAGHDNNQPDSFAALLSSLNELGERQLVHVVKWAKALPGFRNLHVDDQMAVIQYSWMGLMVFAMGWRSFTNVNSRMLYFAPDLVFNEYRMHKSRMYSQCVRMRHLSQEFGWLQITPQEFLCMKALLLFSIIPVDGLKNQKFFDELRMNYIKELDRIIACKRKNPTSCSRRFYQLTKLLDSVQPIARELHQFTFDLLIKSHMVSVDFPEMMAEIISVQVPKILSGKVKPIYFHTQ
Assay: Androgen receptor (AR) assay: inhibition of [3H]R1881 binding, prostate cytosol
Conditions: Table 4′
Protocol: The manner in which the percentage of inhibition is determined is described in “Other Tests; D-Androgen Receptor (AR) Assays”. Lower numbers are desirable.
Male Sprague-Dawley rats (Crl: CD(SD)Br) weighing 200-300 g were obtained from Charles-River Inc. (St-Constant, Québec, Canada). The rats were gonadectomized under general anesthesia (Isoflurane) and killed by cervical dislocation 24 hours later. The ventral prostates were rapidly removed, dissected free from adhering tissue and frozen on dry-ice. Prostates were kept at −80° C. until assay.
All subsequent steps were performed at 0-4° C. Prostates were homogenized in 5 vol (wt/vol) of buffer A (25 mM Tris-HCl, 1.5 mM EDTA disodium salt, 10 mM α-monothioglycerol, 10% glycerol, and 10 mM sodium molybdate, pH 7.4), using a Polytron PT-10 homogenizer (Brinkman Instruments, Canada) at a setting of 5 for three periods of 10 sec, with intervals of 10 sec for cooling. The homogenate was then centrifuged at 105,000×g for 60 min in a Beckman L5-65 ultracentrifuge (Fullerton, Calif.).
Androgen binding was measured using the hydroxylapatite assay (HAP). In brief, the radioactive steroid [^3H]R1881 solubilized in ethanol was diluted into buffer A. Aliquots of prostate cytosol preparation (0.1 ml) were then incubated with 8 nM [^3H]R1881 (0.1 ml, ˜200,000 cpm) in the presence or absence of the indicated concentrations of unlabeled compounds (0.1 ml, prepared in buffer A containing 10% ethanol) for 16-18 h at 0-4° C. […] Unbound steroids were separated by incubation for 40 min at 0-4° C. with 0.3 ml HAP prepared in buffer P (50 mM, Tris-HCl, 10 mM KH2PO4, pH 7.4) as follows: 10 g HAP were washed with buffer P until the supernatant reached a pH of 7.4 and then following centrifugation and decantation of the supernatant, 37.5 ml of buffer P were added. After incubation with HAP and 10 minutes of centrifugation at 1,000×g, the pellet was washed 3 times with 1 ml buffer P. Thereafter, the radioactivity was extracted from the pellet by incubation at room temperature for 60 minutes with 1 ml EtOH. After centrifugation, the supernatant was decanted into a scintillation vial and the pellet was extracted again with ethanol.

| Structure (SMILES) | inhibition at 1 µM (E^−6) [%] | inhibition at 0.01 µM (E^−8) [%] | % Inhibition Androgen Receptor E^−6 (E^−6) [%] | % Inhibition Androgen Receptor E^−8 (E^−8) [%] |
| --- | --- | --- | --- | --- |
| CC1(C)CCC2(CCC3C4CCc5cc(OCCN6CCCCC6)ccc5C4CCC32C)OC1=O [EM-1390-CS, 3-(N-piperidyl-ethyl)-1,3,5(10)-estratrien-17(R)-spiro-2′-(5′,5′-dimethyl-6′-oxo)-tetrahydropyran] | 0 | 0 | – | – |
| CC1(C)CCC2(CCC3C4CCc5c(cc(Cl)c(O)c5Cl)C4CCC32C)OC1=O (stereo not drawn) [EM-1391-CS] | 0 | 0 | – | – |
| CC1(C)CCC2(CCC3C4CCc5c(cc(Cl)c(OS(C)(=O)=O)c5Cl)C4CCC32C)OC1=O (stereo not drawn) [EM-1392-CS] | 0 | 0 | – | – |
| COc1ccc2c(c1)C(=O)CC1C2CC[C@@]2(C)C1CC[C@@]21CCC(C)(C)C(=O)O1 (stereo partly drawn) [EM-1394] | 0 | 0 | – | – |
| COCCOc1cc2c(cc1C#N)C1CC[C@@]3(C)C(CC[C@@]34CCC(C)(C)C(=O)O4)C1CC2 (stereo partly drawn) [EM-1396] | 2 | 0 | – | – |
| CC1(C)CC[C@@]2(CCC3C4CCc5cc(C(=O)O)ccc5C4CC[C@@]32C)OC1=O (stereo partly drawn) [EM-1401, 3-Carboxy-1,3,5(10)-estratrien-17(R)-spiro-2′-(5′,5′-dimethyl-6′-oxo)tetrahydropyran] | 0 | 0 | – | – |
| COCCOc1cc2c(cc1C(=O)OC)C1CC[C@@]3(C)C(CC[C@@]34CCC(C)(C)C(=O)O4)C1CC2 (stereo partly drawn) [EM-1402-CS, 2-Carbomethoxy-3-(2″-methoxyethyloxy)-1,3,5(10)-estratrien 17(R)-spiro-2′-(5′,5′-dimethyl-6′-oxo)tetrahydropyran] | 0 | 0 | – | – |
| CN(C)C(=O)c1ccc2c(c1)CCC1C2CCC2(C)C1CCC21CCC(C)(C)C(=O)O1 (stereo not drawn) [EM-1403] | 0 | 0 | – | – |
| CC1(C)CC[C@@]2(CCC3C4CCc5cc(C(N)=O)ccc5C4CCC32C)OC1=O (stereo partly drawn) [EM-1404] | 0 | 0 | – | – |
| COCCOc1cc2c(cc1C(=O)O)C1CCC3(C)C(CCC34CCC(C)(C)C(=O)O4)C1CC2 [EM-1405, 2-Carboxy-3-(2″-methoxyethyloxy)-1,3,5(10)-estratrien-17(R)-spiro-2′-(5′,5′-dimethyl-6′-oxo)tetrahydropyran] | 0 | 0 | – | – |
| CC1(C)CC[C@@]2(CCC3C4CCc5cc6oncc6cc5C4CC[C@@]32C)OC1=O (stereo partly drawn) [EM-1407-CS, 1,3,5(10)-estratrien-(2,3-oximino)-17(R)-spiro-2′-(5′,5′-dimethyl-6′-oxo)tetrahydropyran] | 0 | 0 | – | – |
| COCCOc1ccc2c(c1)C(=O)CC1C2CCC2(C)C1CCC21CCC(C)(C)C(=O)O1 (stereo not drawn) [EM-1408-CS] | 0 | 0 | – | – |
| COc1cc2c(cc1C)C1CCC3(C)C(CCC34CCC(C)(C)C(=O)O4)C1CC2 (stereo not drawn) [EM-1412-CS] | 0 | 0 | – | – |
| COCCOc1cc2c(cc1C(N)=O)C1CC[C@@]3(C)C(CC[C@@]34CCC(C)(C)C(=O)O4)C1CC2 (stereo partly drawn) [EM-1424, 2-Carbamoyl-3-(2″-methoxyethyloxy)-1,3,5(10)-estratrien 17(R)-spiro-2′-(5′,5′-dimethyl-6′-oxo)tetrahydropyran] | 2 | 2 | – | – |
| COCCOc1cc2c(cc1C(F)(F)F)[C@H]1CC[C@@]3(C)[C@@H](CC[C@@]34CCC(C)(C)C(=O)O4)[C@@H]1CC2 [EM-1438, 3-(2′-Methoxyethoxy)-2-trifluoromethyl-1,3,5(10)-estratrien-17(R)-spiro-2′-(5′,5′-dimethyl-6′-oxo)tetrahydropyran] | – | – | 10 | 0 |
